Test results reported in ChEMBL document CHEMBL5120922, “Discovery, Optimization, and Evaluation of Potent and Selective PI3Kδ-γ Dual Inhibitors for the Treatment of B-cell Malignancies” (J Med Chem, 2022).
Activity calls are given as the source filed them. No cut-off for these calls is given here.

Columns and labels:
DOHH-2 [1] = test: Antiproliferative activity against human DOHH-2 cells assessed as cell growth inhibition measured after 72 hrs by MTT assay; format: functional, cell-based; details: DOHH-2, 72 h
SU-DHL-6 [2] = test: Induction of cell cycle arrest in human SU-DHL-6 cells assessed as accumulation of cells at S phase at 0.5 uM incubated for 24 hrs in presence of ibrutinib by PI staining based flow cytometry analysis (reference value: 24.18 %); format: functional
SU-DHL-6 [3] = test: Induction of cell cycle arrest in human SU-DHL-6 cells assessed as accumulation of cells at G2/M phase at 0.5 uM incubated for 24 hrs by PI staining based FACScan flow cytometry analysis (reference value: 20.21 %); format: functional
DOHH-2 [4] = test: Induction of apoptosis in human DOHH-2 cells assessed as early apoptotic cells at 2 uM incubated for 48 hrs by annexin V-FITC and PI staining based flow cytometry analysis (reference value: 2.09 %); format: functional
DOHH-2 [5] = test: Induction of apoptosis in human DOHH-2 cells assessed as necrotic cells at 2 uM incubated for 48 hrs by annexin V-FITC and PI staining based flow cytometry analysis (Rvb =0.29 %); format: functional
[6] = Binding affinity to N-terminal His6-tagged recombinant full length human PI3K expressed in baculovirus infected Sf21 insect cells at 10 uM in presence of [gamma-33ATP] by scintillation counting based radiometry assay relative to control
Homo sapiens = organism: Homo sapiens; test: Selectivity ratio of IC50 for N-terminal His6-tagged recombinant full length human PI3Kbeta expressed in baculovirus infected Sf21 insect cells to IC50 for N-terminal His6-tagged recombinant full length human PI3Kgamma expressed in baculovirus infected Sf21 insect cells
SU-DHL-6 [7] = test: Antitumor activity against human SU-DHL-6 cells xenografted in po dosed NOD/SCID mouse assessed as tumor volume suppression measured every 2 days; format: functional, organism-based; details: time 2.0 day, DDE = dose-dependent effect
[8] = target: Phosphatidylinositol 4,5-bisphosphate 3-kinase catalytic subunit gamma isoform (Homo sapiens, UniProt P48736); test: Inhibition of N-terminal His6-tagged recombinant full length human PI3Kgamma expressed in baculovirus infected Sf21 insect cells incubated for 30 mins by HTRF assay
Chain of Phosphatidylinositol 4,5-bisphosphate 3-kinase catalytic subunit gamma isoform (P48736 whole entry, canonical isoform): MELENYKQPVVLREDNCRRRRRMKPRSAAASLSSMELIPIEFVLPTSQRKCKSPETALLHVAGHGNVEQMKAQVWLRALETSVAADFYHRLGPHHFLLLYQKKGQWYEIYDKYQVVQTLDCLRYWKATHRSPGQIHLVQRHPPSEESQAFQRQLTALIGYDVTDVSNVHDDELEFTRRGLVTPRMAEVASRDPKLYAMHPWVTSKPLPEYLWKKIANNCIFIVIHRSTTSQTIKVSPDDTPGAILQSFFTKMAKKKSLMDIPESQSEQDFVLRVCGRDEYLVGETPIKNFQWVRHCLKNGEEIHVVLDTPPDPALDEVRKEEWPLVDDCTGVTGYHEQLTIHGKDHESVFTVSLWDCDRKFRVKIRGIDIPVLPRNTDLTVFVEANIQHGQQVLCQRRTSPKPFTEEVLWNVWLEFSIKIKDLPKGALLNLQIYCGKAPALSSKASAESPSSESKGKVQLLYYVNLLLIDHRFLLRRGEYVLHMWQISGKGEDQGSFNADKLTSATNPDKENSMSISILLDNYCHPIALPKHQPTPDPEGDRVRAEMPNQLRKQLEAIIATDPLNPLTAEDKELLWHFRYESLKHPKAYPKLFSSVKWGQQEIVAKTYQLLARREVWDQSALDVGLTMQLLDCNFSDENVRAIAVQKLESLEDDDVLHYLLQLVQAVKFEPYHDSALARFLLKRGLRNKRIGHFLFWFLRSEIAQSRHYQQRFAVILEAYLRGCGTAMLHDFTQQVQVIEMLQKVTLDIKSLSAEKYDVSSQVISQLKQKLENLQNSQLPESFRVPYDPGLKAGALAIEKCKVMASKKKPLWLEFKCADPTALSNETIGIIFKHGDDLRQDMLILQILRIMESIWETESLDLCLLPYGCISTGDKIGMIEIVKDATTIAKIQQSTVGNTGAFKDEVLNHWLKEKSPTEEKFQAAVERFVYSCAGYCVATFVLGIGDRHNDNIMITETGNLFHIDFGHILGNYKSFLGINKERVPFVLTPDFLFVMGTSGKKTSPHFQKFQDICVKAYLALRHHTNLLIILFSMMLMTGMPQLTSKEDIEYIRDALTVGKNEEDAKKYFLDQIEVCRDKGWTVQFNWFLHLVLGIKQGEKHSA

[9] = target: Phosphatidylinositol 4,5-bisphosphate 3-kinase catalytic subunit beta isoform (Homo sapiens, UniProt P42338); test: Inhibition of N-terminal His6-tagged recombinant full length human PI3Kbeta expressed in baculovirus infected Sf21 insect cells incubated for 30 mins by HTRF assay
Chain of Phosphatidylinositol 4,5-bisphosphate 3-kinase catalytic subunit beta isoform (P42338 whole entry, canonical isoform): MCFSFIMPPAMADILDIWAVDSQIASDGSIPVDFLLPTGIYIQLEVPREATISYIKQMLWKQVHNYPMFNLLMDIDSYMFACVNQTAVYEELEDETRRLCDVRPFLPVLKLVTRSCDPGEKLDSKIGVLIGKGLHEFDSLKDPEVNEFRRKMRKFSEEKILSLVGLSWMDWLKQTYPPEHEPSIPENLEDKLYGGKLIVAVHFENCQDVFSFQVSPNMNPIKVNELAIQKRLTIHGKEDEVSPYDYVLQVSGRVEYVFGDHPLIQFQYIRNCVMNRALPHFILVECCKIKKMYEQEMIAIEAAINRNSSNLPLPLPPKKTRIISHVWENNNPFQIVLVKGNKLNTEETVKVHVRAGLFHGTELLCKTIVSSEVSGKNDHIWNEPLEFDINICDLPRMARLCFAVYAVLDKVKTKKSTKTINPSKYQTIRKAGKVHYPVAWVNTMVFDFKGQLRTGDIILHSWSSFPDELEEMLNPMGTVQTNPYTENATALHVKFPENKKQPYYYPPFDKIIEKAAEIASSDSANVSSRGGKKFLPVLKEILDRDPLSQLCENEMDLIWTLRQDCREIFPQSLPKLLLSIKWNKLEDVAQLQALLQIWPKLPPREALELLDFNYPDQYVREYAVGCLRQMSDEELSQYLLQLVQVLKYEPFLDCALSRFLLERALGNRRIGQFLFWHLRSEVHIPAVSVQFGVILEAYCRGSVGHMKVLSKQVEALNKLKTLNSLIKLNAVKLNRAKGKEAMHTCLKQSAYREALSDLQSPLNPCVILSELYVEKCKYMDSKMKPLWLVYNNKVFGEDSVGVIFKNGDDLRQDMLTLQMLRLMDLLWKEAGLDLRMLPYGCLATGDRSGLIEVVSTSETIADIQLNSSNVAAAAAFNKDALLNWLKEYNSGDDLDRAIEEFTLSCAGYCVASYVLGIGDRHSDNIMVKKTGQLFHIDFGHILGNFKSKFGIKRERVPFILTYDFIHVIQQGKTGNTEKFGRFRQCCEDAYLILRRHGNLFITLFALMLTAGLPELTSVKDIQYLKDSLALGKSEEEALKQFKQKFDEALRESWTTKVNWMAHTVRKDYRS

Q: With `C[C@H]1CC[C@@H](c2nc3cccc(Cl)c3c(=O)n2-c2cccnc2)N1c1nc(N)nc(N)c1C#N` as the molecule, how does the IC50 (DOHH-2 [1]) read?
A: Its IC50 is 0.2 µM.

Q: What about the Activity (SU-DHL-6 [2]) of the same molecule?
A: The Activity was 15.65%.

Q: And the Activity (SU-DHL-6 [3])?
A: Its Activity is 10.01%.

Q: What about the Activity (DOHH-2 [4]) of the same molecule?
A: The Activity was 20.4%.

Q: What about the Activity (DOHH-2 [5]) of the same molecule?
A: The Activity was 1.45%.

Q: And the Activity [6]?
A: The Activity was “Active”.

Q: And the Ratio IC50 (Homo sapiens)?
A: The Ratio IC50 was 84.

Q: What about the Activity (SU-DHL-6 [7]) of the same molecule?
A: Its Activity is “Dde”.

Q: And the IC50 [8]?
A: The IC50 was 16 µM.

Q: And the IC50 [9]?
A: The IC50 was 84 µM.
